This is an account of results in ChEMBL document CHEMBL4406910, “Scaffold Morphing Identifies 3-Pyridyl Azetidine Ureas as Inhibitors of Nicotinamide Phosphoribosyltransferase (NAMPT)” (ACS Med Chem Lett, 2019).

In brackets after ≈: the same amount, converted by molar mass. Where only a bound is given, the exact number is not on record here.

Series [1] can be described thus: Solubility of compound in pH 6.8 PBS incubated for 16 to 24 hrs under shaking condition by LC-MS/MS analysis. In kind it is physicochemical.
The nature of series [2]: Cmax in athymic nude mouse at 10 mg/kg, po measured for 0.5 to 24 hrs by LC-MS/MS analysis. Type of series: ADME, organism-based. More on the design: dose 10 mg/kg, route oral. The note with it: in vivo.
Series [3] can be described thus: AUC (0 to 7 hrs) in athymic nude mouse at 10 mg/kg, po measured for 0.5 to 24 hrs by LC-MS/MS analysis. In kind it is ADME, organism-based. As to conditions: in vivo. More on the design: time < 7 hr, dose 10 mg/kg, route oral.

Compound `C[C@H](NC(=O)[C@@H]1CCCN1C)c1ccc(NC(=O)N2CC(c3ccc(N)nc3)C2)cc1` yielded a solubility (thermodynamic) in series [1] of 760 µM (≈ 321 µg/mL).

`C[C@H](NC(=O)c1cccc(F)c1)c1ccc(NC(=O)N2CC(c3ccc(N)nc3)C2)cc1` yielded a solubility (thermodynamic) in series [1] of 32 µM (≈ 13.9 µg/mL).

In series [1], `C[C@@H](c1ccc(NC(=O)N2CC(c3ccc(N)nc3)C2)cc1)N1Cc2ccccc2C1=O` registered a thermodynamic solubility of 220 µM (≈ 94.1 µg/mL).

`C[C@H](NC(=O)c1ncccn1)c1ccc(NC(=O)N2CC(c3ccc(N)nc3)C2)cc1` gave a thermodynamic solubility in series [1] of 300 µM (≈ 125 µg/mL).

`C[C@H](NC(=O)C1CCOCC1)c1ccc(NC(=O)N2CC(c3cccnc3)C2)cc1` displayed a solubility (thermodynamic) in series [1] of 380 µM (≈ 155 µg/mL).

In series [1], `CCC(=O)N[C@@H](C)c1ccc(NC(=O)N2CC(c3cccnc3)C2)cc1` registered a solubility (thermodynamic) of 700 µM (≈ 247 µg/mL).

For `C[C@H](NC(=O)c1ncccn1)c1ccc(NC(=O)N2CC(c3cccnc3)C2)cc1`, in series [1], the thermodynamic solubility was 930 µM (≈ 374 µg/mL).

In turn, `C[C@H](NC(=O)c1cccc(F)c1)c1ccc(NC(=O)N2CC(c3cncc(N)c3)C2)cc1` showed a thermodynamic solubility in series [1] of 17 µM (≈ 7.37 µg/mL).

In series [1], `C[C@H](NC(=O)[C@@H]1CCCN1C)c1ccc(NC(=O)N2CC(c3cccnc3)C2)cc1` showed a solubility (thermodynamic) above 1000 µM.

The compound `CCOc1nc2ccccc2n1Cc1ccc(NC(=O)N2CC(c3cccnc3)C2)cc1` yielded a Cmax in series [2] of 29.1 µM. In series [3], this compound gave an AUC(0-t) at 7 h of 67.4 µM·h.

Consider `C[C@H](NC(=O)[C@@H]1CCCN1C)c1ccc(NC(=O)N2CC(c3cncc(N)c3)C2)cc1`, for which, in series [1], the solubility (thermodynamic) turned out to be 820 µM (≈ 346 µg/mL).

`C[C@H](NC(=O)C1CCOCC1)c1ccc(NC(=O)N2CC(c3ccc(N)nc3)C2)cc1`: the solubility (thermodynamic) in series [1] turned out to be 310 µM (≈ 131 µg/mL).

Regarding `C[C@@H](c1ccc(NC(=O)N2CC(c3cccnc3)C2)cc1)N1Cc2ccccc2C1=O`, the thermodynamic solubility in series [1] turned out to be 130 µM (≈ 53.6 µg/mL).

`C[C@H](NC(=O)c1cccc(F)c1)c1ccc(NC(=O)N2CC(c3cccnc3)C2)cc1` showed a solubility (thermodynamic) in series [1] of 11 µM (≈ 4.6 µg/mL).

`C[C@H](NC(=O)C1CCOCC1)c1ccc(NC(=O)N2CC(c3cncc(N)c3)C2)cc1` displayed a solubility (thermodynamic) in series [1] of 440 µM (≈ 186 µg/mL).

`CCC(=O)N[C@@H](C)c1ccc(NC(=O)N2CC(c3ccc(N)nc3)C2)cc1`: the thermodynamic solubility in series [1] was determined as 760 µM (≈ 279 µg/mL).

The compound `C[C@@H](c1ccc(NC(=O)N2CC(c3cncc(N)c3)C2)cc1)N1Cc2ccccc2C1=O` had a thermodynamic solubility in series [1] of 35 µM (≈ 15 µg/mL).

Regarding `CCC(=O)N[C@@H](C)c1ccc(NC(=O)N2CC(c3cncc(N)c3)C2)cc1`, the solubility (thermodynamic) in series [1] was found to be 230 µM (≈ 84.5 µg/mL).

For the compound `C[C@H](NC(=O)c1ncccn1)c1ccc(NC(=O)N2CC(c3cncc(N)c3)C2)cc1`, in series [1], the solubility (thermodynamic) worked out at 300 µM (≈ 125 µg/mL).

One may read the thermodynamic solubility as solubility found after equilibrating the solid with the medium. As a reminder, the Cmax is the peak of the concentration-time curve. What is called AUC(0-t) is the area under the concentration-time curve up to a stated or last time point. A high value points to high exposure.
